Assay [1] has as its target MOZ-KAT6A (Homo sapiens, UniProt Q92794, A567V). The assay can be described thus: Acetyltransferase biochemical assay (AlphaScreen), KAT6A. On the technique in general: In Alpha technology, singlet oxygen from a donor bead excites a nearby acceptor bead.
Assay [2] concerns the target T1, MOF-KAT8 (Homo sapiens, UniProt Q9H7Z6).
T1 sequence (Q9H7Z6 with tags, fused parts or gaps): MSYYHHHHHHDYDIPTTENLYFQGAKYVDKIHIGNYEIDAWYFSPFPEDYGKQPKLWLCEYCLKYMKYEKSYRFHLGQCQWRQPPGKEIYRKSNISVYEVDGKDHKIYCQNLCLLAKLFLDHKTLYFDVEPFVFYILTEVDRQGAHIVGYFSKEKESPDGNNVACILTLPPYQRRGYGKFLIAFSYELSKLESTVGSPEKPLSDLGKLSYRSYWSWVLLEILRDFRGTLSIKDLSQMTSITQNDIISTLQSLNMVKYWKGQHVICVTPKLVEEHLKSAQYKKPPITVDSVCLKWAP
Put plainly: biochemical.

In assay [3] the target is TIP60-KAT5 (Homo sapiens, UniProt Q92993). Put plainly: Acetyltransferase biochemical assay (AlphaScreen), KAT5.
For assay [4], the target named is HBO-KAT7 (Homo sapiens, UniProt O95251). Put plainly: Acetyltransferase biochemical assay (AlphaScreen), KAT7.

Bounds are passed on as bounds.

Chain of MOZ-KAT6A (Q92794 with tags, fused parts or gaps A567V): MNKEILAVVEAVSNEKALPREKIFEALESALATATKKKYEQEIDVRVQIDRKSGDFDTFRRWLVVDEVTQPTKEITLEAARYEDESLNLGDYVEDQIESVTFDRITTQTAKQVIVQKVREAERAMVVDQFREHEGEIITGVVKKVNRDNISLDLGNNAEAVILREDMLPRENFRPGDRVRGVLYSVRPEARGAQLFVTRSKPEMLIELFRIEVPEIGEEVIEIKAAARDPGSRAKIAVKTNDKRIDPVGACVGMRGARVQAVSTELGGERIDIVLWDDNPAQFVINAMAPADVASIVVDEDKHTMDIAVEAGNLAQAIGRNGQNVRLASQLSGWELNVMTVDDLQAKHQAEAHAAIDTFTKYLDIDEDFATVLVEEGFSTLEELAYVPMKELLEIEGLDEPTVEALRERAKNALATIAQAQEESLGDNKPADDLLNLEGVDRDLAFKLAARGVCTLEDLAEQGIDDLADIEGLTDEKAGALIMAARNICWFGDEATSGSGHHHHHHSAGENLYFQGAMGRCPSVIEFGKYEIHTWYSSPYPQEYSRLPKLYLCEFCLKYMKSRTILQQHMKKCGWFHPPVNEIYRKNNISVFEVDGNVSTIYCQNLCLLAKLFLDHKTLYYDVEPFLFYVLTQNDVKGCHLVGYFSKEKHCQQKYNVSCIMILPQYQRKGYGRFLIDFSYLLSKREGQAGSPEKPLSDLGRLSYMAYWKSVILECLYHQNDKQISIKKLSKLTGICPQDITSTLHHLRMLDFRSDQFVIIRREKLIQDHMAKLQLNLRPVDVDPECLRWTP
Chain of HBO-KAT7 (O95251 with tags, fused parts or gaps): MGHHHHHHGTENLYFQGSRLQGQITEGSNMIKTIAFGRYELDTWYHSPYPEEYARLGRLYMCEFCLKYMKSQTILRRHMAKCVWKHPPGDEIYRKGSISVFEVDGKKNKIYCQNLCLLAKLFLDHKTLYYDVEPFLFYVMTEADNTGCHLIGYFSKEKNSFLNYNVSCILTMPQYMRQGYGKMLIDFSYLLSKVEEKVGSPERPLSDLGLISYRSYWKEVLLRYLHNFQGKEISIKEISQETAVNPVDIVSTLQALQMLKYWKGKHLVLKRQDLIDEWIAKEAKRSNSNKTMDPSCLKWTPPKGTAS
Chain of TIP60-KAT5 (Q92993 with tags, fused parts or gaps isoform Q92993-2): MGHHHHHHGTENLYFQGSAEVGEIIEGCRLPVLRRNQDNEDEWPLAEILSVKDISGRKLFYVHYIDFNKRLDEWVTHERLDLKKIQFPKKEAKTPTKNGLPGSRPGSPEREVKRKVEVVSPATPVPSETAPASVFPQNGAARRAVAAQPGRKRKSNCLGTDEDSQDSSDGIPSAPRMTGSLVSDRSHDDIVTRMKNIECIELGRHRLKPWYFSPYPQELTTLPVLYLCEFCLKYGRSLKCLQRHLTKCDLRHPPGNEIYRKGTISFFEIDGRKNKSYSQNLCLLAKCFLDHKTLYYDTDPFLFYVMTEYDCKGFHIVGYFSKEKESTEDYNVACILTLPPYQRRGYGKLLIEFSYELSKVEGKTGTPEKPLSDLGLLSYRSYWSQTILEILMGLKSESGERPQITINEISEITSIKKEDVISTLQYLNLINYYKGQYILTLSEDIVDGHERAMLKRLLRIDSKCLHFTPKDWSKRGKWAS

The term IC50 denotes the concentration that inhibits the measured activity by half. A high value points to lower potency. Turning to `CCc1ccc(OC)c(S(=O)(=O)Nc2noc3ccc(OC)cc23)c1` [Example 111, 5-Ethyl-2-methoxy-N-(5-methoxybenzo[d]isoxazol-3-yl)benzenesulfonamide], the concentration for half-maximal inhibition (IC50) came out at 0.842 µM in assay [1], 3.22 µM in assay [2], 26.6 µM in assay [3] and 4.54 µM in assay [4].

As for `Cc1ncc(-c2ccc(C)c(S(=O)(=O)Nc3noc4cccc(Cl)c34)c2)o1` [Example 18, N-(4-chlorobenzo [d]isoxazol-3-yl)-2-methyl-5-(2-methyloxazol-5-yl)benzenesulfonamide], the IC50 in assay [1] is 74.9 µM; in assay [2], 63.5 µM; in assay [3], 118 µM; in assay [4], 34.1 µM.

Regarding `CCc1ccc2onc(NS(=O)(=O)c3cc4c(cc3OC)CCCC4)c2c1` [Example 204, N-(5-Ethylbenzo[d]isoxazol-3-yl)-3-methoxy-5,6,7,8-tetrahydronaphthalene-2-sulfonamide], the IC50 in assay [1] turned out to be 0.4 µM; in assay [2] it was 3.06 µM; in assay [3], 4.57 µM; in assay [4], 3.05 µM.

As to `Cc1ccc(-n2cccn2)cc1S(=O)(=O)Nc1noc2cccc(Cl)c12` [Example 20, N-(4-chlorobenzo [d]isoxazol-3-yl)-2-methyl-5-(1H-pyrazol-1-yl)benzenesulfonamide], the IC50 in assay [1] turned out to be 29.4 µM; in assay [2] it was 61.4 µM; in assay [3], 81.5 µM; in assay [4], 41.3 µM.

For the compound `COc1ccc(S(=O)(=O)Nc2noc3ccc(C)cc23)c(OC)c1` [Example 170, 2,4-dimethoxy-N-(5-methylbenzo[d]isoxazol-3-yl)benzenesulfonamide], the IC50 in assay [1] amounted to 1.5 µM; in assay [2] it was 9.67 µM; in assay [3], 4.83 µM; in assay [4], 0.982 µM.

Turning to `COCc1cc2onc(NS(=O)(=O)c3ccc(OC)nc3)c2cc1C` [Example 164, 6-methoxy-N-(6-(methoxymethyl)-5-methylbenzo[d]isoxazol-3-yl)pyridine-3-sulfonamide], the IC50 in assay [1] is 27.2 µM; in assay [2] it was greater than 125 µM; in assay [3] it was greater than 125 µM; in assay [4], 61.6 µM.

For the compound `CCc1cc(S(=O)(=O)Nc2noc3cccc(Cl)c23)c(=O)n(C)c1` [Example 107, N-(4-Chlorobenzo[d]isoxazol-3-yl)-5-ethyl-1-methyl-2-oxo-1,2-dihydropyridine-3-sulfonamide], the IC50 came to 14.9 µM in assay [1], 42.1 µM in assay [2], 74.1 µM in assay [3] and 11.7 µM in assay [4].

With `COc1cccc2onc(NS(=O)(=O)c3cccc4ccoc34)c12` [Example 81, N-(4-methoxybenzo[d]isoxazol-3-yl)benzofuran-7-sulfonamide], the IC50 amounted to 43.6 µM in assay [1], 9.43 µM in assay [2], 31.5 µM in assay [3] and 6.73 µM in assay [4].

Consider `COc1cc2c(cc1S(=O)(=O)Nc1noc3ccc(C4CC4)cc13)CCCC2` [Example 205, N-(5-Cyclopropylbenzo[d]isoxazol-3-yl)-3-methoxy-5,6,7,8-tetrahydronaphthalene-2-sulfonamide], for which the IC50 in assay [1] was 0.115 µM; in assay [2], 3.44 µM; in assay [3], 3.73 µM; in assay [4], 0.936 µM.

With `CCOc1ccc2onc(NS(=O)(=O)c3cc(CC)ccc3OC)c2c1` [Example 109], the IC50 in assay [1] is 1.21 µM; in assay [2], 9.12 µM; in assay [3], 69.3 µM; in assay [4] it was 4.07 µM.

As for `CCOc1cccc2c(NS(=O)(=O)c3cc(CC)ccc3OC)noc12` [Example 132], the IC50 worked out at 7.45 µM in assay [1], 15.3 µM in assay [2], 53 µM in assay [3] and 11.8 µM in assay [4].

In the case of `O=S(=O)(Nc1noc2cccc(Cl)c12)c1ccccc1` [Example 151, N-(4-chlorobenzo[d]isoxazol-3-yl)benzenesulfonamide], the IC50 in assay [1] was 27.9 µM; in assay [2], 34.7 µM; in assay [3], greater than 125 µM; in assay [4], 25.6 µM.

In the case of `COc1cccc(OC)c1S(=O)(=O)Nc1noc2cccc([N+](=O)[O-])c12` [Example 223, 2,6-Dimethoxy-N-(4-nitrobenzo[d]isoxazol-3-yl)benzenesulfonamide], the IC50 in assay [1] is 25.5 µM; in assay [2] it was 42.4 µM; in assay [3], greater than 125 µM; in assay [4], 43.5 µM.

In the case of `COc1cccc(OC)c1S(=O)(=O)Nc1noc2ccc(OC(F)(F)F)cc12` [Example 100, 2,6-Dimethoxy-N-(5-(trifluoromethoxy)benzo [d]isoxazol-3-yl)benzenesulfonamide], the IC50 stood at 0.972 µM in assay [1], 62.6 µM in assay [2], 51.7 µM in assay [3] and 2.24 µM in assay [4].

For the compound `COc1cccc(OCc2cnn(C)c2)c1S(=O)(=O)Nc1noc2cccc(OC)c12` [Example 221, 2-Methoxy-N-(4-methoxybenzo[d]isoxazol-3-yl)-6-((1-methyl-1H-pyrazol-4-yl)methoxy)benzenesulfonamide], the IC50 in assay [1] was 37.5 µM; in assay [2], 27.9 µM; in assay [3], greater than 125 µM; in assay [4], 63.7 µM.

As to `COc1cc(COc2cccc(OC)c2S(=O)(=O)Nc2noc3cccc(OC)c23)ccn1` [Example 216, 2-Methoxy-N-(4-methoxybenzo[d]isoxazol-3-yl)-6-((2-methoxypyridin-4-yl)methoxy)benzenesulfonamide], the IC50 in assay [1] came to 0.625 µM; in assay [2], 11.2 µM; in assay [3] it was 124 µM; in assay [4], 3.11 µM.

For `COc1cccc(OC)c1S(=O)(=O)Nc1noc2ccc(C)cc12` [Example 104, 2,6-Dimethoxy-N-(5-methylbenzo[d]isoxazol-3-yl)benzenesulfonamide], the IC50 in assay [1] was determined as 0.786 µM; in assay [3], 28.1 µM; in assay [4], 3.13 µM.

For `O=S(=O)(Nc1noc2cccc(Cl)c12)c1ccc(Oc2ccc(F)cc2)cc1` [Example 17, N-(4-chlorobenzo[d]isoxazol-3-yl)-4-(4-fluorophenoxy) benzenesulfonamide], the IC50 in assay [1] turned out to be 11.8 µM; in assay [3], 27.7 µM; in assay [4], 14.6 µM.

On to `O=S(=O)(Nc1noc2ccccc12)c1cccc(-c2ccccc2)c1` [Example 70, N-(benzo[d]isoxazol-3-yl)-[1,1-biphenyl]-3-sulfonamide], for which the IC50 in assay [1] came to 31.3 µM; in assay [3] it was 36.8 µM; in assay [4] it was 32 µM.

For the compound `O=S(=O)(Nc1noc2cccc(Cl)c12)c1cc(Br)cc2c1OCC2` [Example 127, 5-bromo-N-(4-chlorobenzo[d]isoxazol-3-yl)-2,3-dihydrobenzofuran-7-sulfonamide], the results for the IC50 in assay [1], in assay [3] and in assay [4] were 9.16 µM, 49.7 µM and 9.49 µM, respectively.

Regarding `O=S(=O)(Nc1noc2cccc(Cl)c12)c1ccc(F)c(F)c1F` [Example 117, N-(4-Chlorobenzo[d]isoxazol-3-yl)-2,3,4-trifluorobenzenesulfonamide], the IC50 in assay [1] is 85.4 µM; in assay [3], greater than 125 µM; in assay [4] it was greater than 125 µM.

Turning to `CCc1ccc(OC)c(S(=O)(=O)Nc2noc3cccc(COC)c23)c1` [Example 110, 5-Ethyl-2-methoxy-N-(4-(methoxymethyl)benzo [d]isoxazol-3-yl)benzenesulfonamide], the IC50 is 7.89 µM in assay [1], greater than 125 µM in assay [3] and 17.5 µM in assay [4].

`CCc1ccc(OC)c(S(=O)(=O)Nc2noc3cc(-n4nccn4)ccc23)c1` [Example 130]: the half-inhibitory concentration (IC50) in assay [1] was 2.96 µM; in assay [3], greater than 125 µM; in assay [4], 21.7 µM.

With `O=S(=O)(Nc1noc2cccc(Cl)c12)c1ccc(OC(F)(F)F)cc1` [Example 23, N-(4-chlorobenzo [d]isoxazol-3-yl)-4-(trifluoromethoxy) benzenesulfonamide], the IC50 stood at 21.8 µM in assay [1], 72.9 µM in assay [3] and 23.9 µM in assay [4].

As to `CCc1ccc(OC)c(S(=O)(=O)Nc2noc3ccc(C)c(Cl)c23)c1` [Example 153], the IC50 in assay [1] was 0.437 µM; in assay [3], 4.05 µM; in assay [4], 0.507 µM.

Regarding `CCc1ccc(OC)c(S(=O)(=O)Nc2noc3ccc(CO)cc23)c1` [Example 229], the IC50 in assay [1] was 85 µM; in assay [3], greater than 125 µM; in assay [4], 115 µM.

As for `COCc1ccccc1S(=O)(=O)Nc1noc2cccc(OC)c12` [Example 88, N-(4-methoxybenzo[d]isoxazol-3-yl)-2-(methoxymethyl)benzene-sulfonamide], the IC50 was 41.2 µM in assay [1], greater than 125 µM in assay [3] and 7.51 µM in assay [4].

For `COc1cccc(OC)c1S(=O)(=O)Nc1noc2cc(-c3cccnc3)cc(OC)c12` [Example 246, 2,6-Dimethoxy-N-(4-methoxy-6-(pyridin-3-yl)benzo[d]isoxazol-3-yl)benzenesulfonamide], the IC50 was found to be 0.676 µM in assay [1], 27.1 µM in assay [3] and 0.478 µM in assay [4].

As to `CCc1ccc(OC)c(S(=O)(=O)Nc2noc3ccc(CN)cc23)c1` [Example 226], the IC50 in assay [1] was 10.8 µM; in assay [3], 80.3 µM; in assay [4], 38 µM.

Turning to `COCc1cc(OC)c2c(NS(=O)(=O)c3c(OC)cccc3OC)noc2c1I` [Example 160], the IC50 in assay [1] came out at 1.05 µM; in assay [3], 46.2 µM; in assay [4], 1.58 µM.

The values above are taken from patent US12365655B2, “Compounds” (CTXT PTY LTD, priority 2018, dated 2025).
